Assay results published in patent US11291705B2, “Use of caspase-3 inhibitors and caspase-3 activators in the manufacture of medicament for treating cancer and wound healing” (Technion Research & Development Foundation Limited, priority 2016, dated 2022).

Tests used:
[1] = tested on: excision wounds (1 cm^2) on dorsal skin; assay: Wound repair of full thickness excision wounds on dorsal skin; type: in vivo, mice
Description: For all wound repair experiments, mice were sedated with isofluorane. Mice were shaved with electric clippers and treated topically with a hair removal cream for a few minutes (Nair). Full-thickness excision wounds (1 cm^2) were generated on the dorsal skins and monitored for wound coverage. PWI, mice were individually housed. At the desired time PWI, mice were euthanized with CO2 and the wounded skins were harvested and either embedded in OCT or prepared for whole mounts as described above or for protein extraction.
Inhibition of caspase-3 impairs wound repair—Since YAP is known to play a chief role in regeneration (34), the present inventors investigated whether in vivo inhibition of Caspase-3 affects the wound repair dynamic by modulating YAP activity. […] Full thickness excision wounds (1.0 cm^2) were generated on the dorsalbacks and monitored for wound coverage. In control mice, three days post wound infliction (PWI) the wound size was reduced by 60% while in Ivachtin and z-DEVD-fink (SEQ ID NO: 71) treated mice, it was reduced by only 10% and 20%, respectively (FIG. 5A and FIG. 5B).

YAP [2] = assay: YAP nuclear translocation and pYAP levels in EGFPhigh SGPZ cells; type: cell-based, mice; conditions: immunoblot
Method: (§1) Cell culture—The HaCaT and HEK293 cell lines were cultured in DMEM medium supplemented with 10% FBS, 1% P/S (Pen/Strep) and 1% L-glutamine. Integrin α6^+CD34^+ HFSCs and integrin α6^+CD34^−EGFP^high SGPZ cells were isolated and cultured in HFSC media on sustaining J2 feeder cells. Serum was chelated for a calcium concentration of 50 μM. […] Cells were fixed in 4% PFA for 10 minutes for immunofluorescence analysis or harvested for protein or RNA extraction.
Given that Caspase-3 inhibition hindered cell number and proliferation in vitro the present inventors next examined whether this was mediated via YAP in EGFP^high SGPZ cells using K15^+ SGPZ cells. […] Similar findings as to effect of caspase-3 inhibition on YAP activation and proliferation were also obtained in HaCaT and Hek293E3 cells (FIGS. 3J-K, FIGS. 11B-F).

B16F10 melanoma cells = B16F10 melanoma cells in vitro: growth, Ki67, pYAP, α-Catenin; type: cell-based
Description: FIG. 23D—A histogram depicting quantifications of 501-A total cells number after treatment with Z-DEVD-fink (SEQ ID NO: 71). FIG. 23E—Images depicting B16F10 melanoma cells stained for Ki67 (red), active cleaved Caspase-3 (green) and nuclear counterstain DAPI (blue). […] Insets are zoom in on specific cells, Denotation: CP3, Caspase-3. Scale bars: 100 μm. ** (P<0.01), *** (P<0.001).
FIG. 24A—Images depicting B16F10 melanoma cells stained for pYAP (red). […] FIG. 24D—Images depicting B16F10 melanoma cells stained for α-Catenin (green). […] FIG. 24E—Immunoblot analysis of proteins isolated from B16F10 melanoma cells using antibodies against pYAP, α-Catenin and α-Tubulin as control.

human melanoma cells = assay: GFP-infected human melanoma cells injected into recipient mice; conditions: mouse, in vivo
Method: FIG. 15A—Melanoma cell were injected into recipient mice. […] Representative image 6 days after first treatment. FIG. 15B—quantification of tumor development indicates inhibition of tumor size in response to caspase-3 inhibition. FIG. 15C—Extracted tumors were analyzed for proliferation using the Ki67 marker and the presence of GFP^+ melanoma cells. FIG. 15D—Tumors treated with the caspase-3 activator ABT-199 result in a dramatic increase in tumor mass. […] Scale bars, 20 μm.
Examination of the effect of caspase-3 inhibition on melanoma formation in vivo—For this aim human melanoma cells were stably infected with GFP. Cells were then injected into to recipient mice and the effect of administrating caspase-3 inhibitors was monitored.

[3] = tested on: 624-38 melanoma cell line; assay: Proliferation of melanoma cell line 624-38; type: cell-based
Description: (§2) FIGS. 14A-C depict inhibition of Caspase-3 attenuates proliferation of melanoma cells. […] FIG. 14C—Immunofluorescence of decreased Ki67^+ cells (green) after 4 days of Caspase-3 inhibition. Scale bars, 20 μm (FIG. 14C right panels), 100 μm (FIG. 14A, FIG. 14B panels).
(§3) In order to examine this hypothesis, the present inventors first investigated the effect of caspase-3 inhibition on the proliferation rate of melanoma cells. […] Similar results were also obtained when examining 4 additional cell types (HaCaT keratinocytes, Hek293E3, K15 SG progenitors and hair follicle stem cells) (FIGS. 10A-F).

YAP [4] = assay: YAP localization and pYAP levels in HEK293 cells; type: cell-based
Method: as §1

sebaceous gland (SG) = assay: Sebaceous gland (SG) size and cell proliferation in mice injected subcutaneously with caspase-3 inhibitors or activators; type: in vivo; conditions: eight week old mice, subcutaneous injection for 7 days
Method: Immunofluorescence—Skins were embedded in OCT, frozen, sectioned, and fixed in 4% paraformaldehyde. Tail samples were treated with 5 mM EDTA for 4 hours at 37° C. to separate skin epithelium from dermis and fixed in formal saline for 2 hours at room temperature. Dorsal samples were treated with 5 mM EDTA for 6 hours at 37° C. to separate skin epithelium from dermis and fixed in formal saline for 1 hour at room temperature. Samples were blocked for 2 hours in Blocking buffer consisting of 10% Goat serum, 2% BSA, 0.2% Triton-X. Primary antibodies were diluted in blocking buffer and tissue/sections were incubated overnight at 4° C. Whole mounts or sections were washed at least 3 times with PBS. Secondary antibodies were incubated for 1 hour at room temperature followed by 4 washes with PBS. The following primary antibodies were used: YAP (Rabbit, 1:100, Cell Signalling, Mouse 1:100 Santa Cruz), pYAP (Rabbit, 1:100 Cell Signalling), α-E-Catenin (Rabbit, 1:100, Cell Signalling), Ki67 (Rabbit, 1:100, Abcam; Rat, 1:100, eBioscience), CD34 (Rat, 1:100, eBioscience), K15 (Mouse, 1:100, Thermo, Chicken, 1:1000, Abcam), Sox9 (Rabbit, 1:100, Millipore, Goat, 1:50, Santa Cruz). Cleaved-Caspase-3 (Rabbit, 1:100, Cell signalling), Phalloidin (1:250, Life Technologies). TUNEL was performed using ApopTag TdT (Millipore). […] Analysis was performed on Zeiss LSM 880 confocal microscope.

[5] = tested on: integrin α6+CD34+ HFSCs, HaCaT keratinocytes and Hek293E3 cells; assay: Expansion of other cell types treated with caspase-3 inhibitors; type: cell-based; conditions: one treatment
Description: In order to examine whether Caspase-3 affects the expansion of other cell types the present inventors isolated integrin α6^+CD34^+ HFSCs from second telogen mice.

YAP target genes = assay: RT-PCR of YAP dependent target genes in treated HaCaT cells; type: cell-based; conditions: relative to DMSO treated cells
Method: RNA extraction, reverse transcription and real-time PCR (RT-PCR)—RNA was isolated using Trizol (Sigma) and up to 2 μg of RNA were subjected to cDNA synthesis (Applied Biosystems). Real time PCR was carried out using the PerfeCTa SYBR Green FastMix (Quanta), with gene-specific primers [RpLp0 [sequence] […] Amplicon levels were analysed in triplicate and quantitated relative to a standard curve comprising cDNA, and values normalized to levels of the housekeeping gene (Rplp0 or Gapdh). Reactions were: 3 minutes at 95° C., then 40 cycles of 10 seconds at 95° C. and 30 seconds at 60° C. with addition of melt curve step: 10 seconds at 95° C., and increments of 0.5° C. every 5 seconds between 65° C. to 95° C.

501A melanoma cell line = assay: Proliferation of melanoma cell line 501A; type: cell-based
Description: as §2, §3

α-Catenin = α-Catenin levels in low confluent HaCaT cells; type: cell-based
Method: as §1
TUNEL was performed using ApopTag TdT (Millipore). […] Analysis was performed on Zeiss LSM 880 confocal microscope.
The levels of α-Catenin are known to be a critical factor in the regulation of YAP (27). In low confluent cells, diminished levels of α-Catenin serve as a mechanotransduction mechanism that instructs the nuclear translocation of YAP and drives proliferation (27, 33). […] The present inventors therefore examined the levels of α-Catenin both in vitro and in vivo, by employing both Western blot analysis and immunofluorescence.

[6] = tested on: integrin α6+CD34−EGFPhigh SGPZ cells; assay: Proliferation and expansion of isolated SGPZ cells treated with caspase-3 inhibitors; type: cell-based, mice; conditions: z-DEVD-fmk added initially
Method: Flow Cytometry—SGPZ cell isolation and FACS analysis were performed with K15-EGFP mice and CD34, integrin α6 and Sca1 antibodies. K15-GFP^high cells were isolated from ears and dorsal skin of 8-week old B6.Cg-Tg(Krt1-15-EGFP)2Cot/J mice.

## z-DEVD-fmk
[1]; 20 and 30 days PWI
  de novo HF regeneration from the wound bed: inhibited
[1]; FIGS. 19A-F
  wound closure: significant decrease
[1]; mouse, in vivo
  cells positive for nuclear YAP in the wound border: Decreased nuclear YAP
[1]; three days post wound infliction, injected from 2 days prior to wounding
  wound size reduced by: 20%
YAP [2]
  levels of pYAP: increased pYAP levels
B16F10 melanoma cells
  proliferative (Ki67) cells: reduced levels of proliferative cells
B16F10 melanoma cells; compared to DMSO
  phosphorylated YAP-positive cells (pYAP+): significant increases
B16F10 melanoma cells; continuous presence of inhibitor
  growth of B16F10 melanoma cells: hindered
Human melanoma cells
  effect on tumor development, one inhibitor compared with the other: stronger effect
[3]
  cell proliferation and number: dramatic decrease
YAP [4]
  nuclear YAP localization: Decreased nuclear YAP localization
YAP [4]; Western blot
  pYAP levels: increased pYAP levels
Sebaceous gland (SG)
  SG size: decrease in SG size
[5]
  expansion of cells: impaired the expansion
YAP target genes
  ErbB4 expression, downregulation: 6 fold
  HOXA5 expression, decrease: 2 fold
  HOXC13 expression, decrease: 5 fold
  WTIP expression, downregulation: 2 fold
501A melanoma cell line
  cell proliferation and number: dramatic decrease
α-Catenin
  levels of α-Catenin: increased levels
[6]
  cell number: dramatically inhibited
  number of formed colonies: dramatically inhibited
